Laboratory results reported in EP0908457B1, “3-(1,2-benzisothiazol- and isoxazol-5-Y1)-2,4(1H,3H)-pyrimidinedione or thione and 3-(1,2-benzisothiazol- and isoxazol-5-y1)-4(3H)-pyrimidinone or thione herbicidal agents” (BASF AKTIENGESELLSCHAFT, priority 1997, dated 1999).

Experiments:
[1] = test system: Cyperus serotinus, Rottb.; assay: Preemergence weed control under flooded paddy conditions, CYPSE (Flatsedge); type: in vivo; as to herbicidal effect rating, CYPSE: meaning of each grade not given here
[2] = test system: Echinochloa oryzoides (Ard.) Fritsch.; assay: Preemergence weed control under flooded paddy conditions, ECHORC (Watergrass (Calif.)); type: in vivo; settings: flooded paddy; as to herbicidal effect rating, ECHORC: meaning of each grade not given here
[3] = test system: Sagittaria pygmaea, L.; assay: Preemergence weed control under flooded paddy conditions, SAGPY (Arrowhead (Pygmaea)); type: in vivo; settings: flooded paddy; as to herbicidal effect rating, SAGPY: meaning of each grade not given here
[4] = test system: Cyperus iria; assay: Preemergence weed control under flooded paddy conditions, CYPIR (Rice Flatsedge); type: in vivo; settings: flooded paddy; as to herbicidal effect rating, CYPIR: meaning of each grade not given here
[5] = test system: Monochoria vaginalis, Presl.; assay: Preemergence weed control under flooded paddy conditions, MOOVA (Monochoria); type: in vivo; settings: flooded paddy; as to herbicidal effect rating, MOOVA: meaning of each grade not given here
[6] = test system: Oryza sativa, (L.) Tebonnet; assay: Rice tolerance to post-transplant applications under flooded paddy conditions (Example 187), ORYSAT (Rice, Tebonnet); as to herbicidal effect rating ORYSAT: meaning of each grade not given here
[7] = Rate 0.0320 kg/ha, preemergence weeds, rated three to four weeks after treatment
[8] = Rate 0.0620 kg/ha, preemergence weeds, rated three to four weeks after treatment
[9] = Rate 0.1250 kg/ha, preemergence weeds, rated three to four weeks after treatment
[10] = Rate 0.2500 kg/ha, preemergence weeds, rated three to four weeks after treatment
[11] = Rate 0.0320 kg/ha, rated three to four weeks after treatment
[12] = Rate 0.0620 kg/ha, rated three to four weeks after treatment
[13] = Rate 0.1250 kg/ha, rated three to four weeks after treatment
[14] = Rate 0.2500 kg/ha, rated three to four weeks after treatment
[15] = 0.0320 kg/ha, preemergence, rated three to four weeks after treatment
[16] = 0.2500 kg/ha, preemergence, rated three to four weeks after treatment
[17] = 0.0620 kg/ha, preemergence, rated three to four weeks after treatment
[18] = 0.1250 kg/ha, preemergence, rated three to four weeks after treatment
[19] = Rate 0.0320 kg/ha, preemergence, rated 3-4 weeks after treatment
[20] = Rate 0.0620 kg/ha, preemergence, rated 3-4 weeks after treatment
[21] = Rate 0.1250 kg/ha, preemergence, rated 3-4 weeks after treatment
[22] = Rate 0.2500 kg/ha, preemergence, rated 3-4 weeks after treatment
[23] = Rate 0.0313 kg/ha, preemergence, rated three to four weeks after treatment
[24] = Rate 0.0625 kg/ha, preemergence, rated three to four weeks after treatment
[25] = Rate 0.1250 kg/ha, preemergence, rated three to four weeks after treatment
[26] = Rate 0.2500 kg/ha, preemergence, rated three to four weeks after treatment
[27] = Rate 0.0320 kg/ha, preemergence, rated three to four weeks after treatment
[28] = Rate 0.0620 kg/ha, preemergence, rated three to four weeks after treatment

CC(=O)c1nsc2ccc(-n3c(=O)cc(C(F)(F)F)n(C)c3=O)cc12 [Example 307, 2,4(1H,3H)-Pyrimidinedione, 3-(3-acetyl-1,2-benzisothiazol-5-yl)-1-methyl-6-(trifluoromethyl)-]
5.0: herbicidal effect rating, ECHORC [2, 8] | herbicidal effect rating ORYSAT [6, 11]
0.0: herbicidal effect rating, CYPSE [1, 7] | herbicidal effect rating, SAGPY [3, 7]
7.0: herbicidal effect rating, CYPSE [1, 9]
7.5: herbicidal effect rating, CYPIR [4, 10]
6.5: herbicidal effect rating, SAGPY [3, 9] | herbicidal effect rating, CYPIR [4, 7] | herbicidal effect rating, CYPIR [4, 8] | herbicidal effect rating, CYPIR [4, 9]
6.0: herbicidal effect rating, ECHORC [2, 7] | herbicidal effect rating, MOOVA [5, 7] | herbicidal effect rating ORYSAT [6, 12]
9.0: herbicidal effect rating, CYPSE [1, 10] | herbicidal effect rating, ECHORC [2, 10] | herbicidal effect rating, SAGPY [3, 10] | herbicidal effect rating, MOOVA [5, 9] | herbicidal effect rating, MOOVA [5, 10] | herbicidal effect rating ORYSAT [6, 14]
8.5: herbicidal effect rating, ECHORC [2, 9] | herbicidal effect rating ORYSAT [6, 13]
3.5: herbicidal effect rating, CYPSE [1, 8]
1.0: herbicidal effect rating, SAGPY [3, 8]
8.0: herbicidal effect rating, MOOVA [5, 8]

Cn1c(C(F)(F)F)cc(=O)n(-c2ccc3snc(COCOCc4ccccc4)c3c2)c1=O [Example 461, 2,4(1H,3H)-Pyrimidinedione, 3-{3-{[(benzyloxy)-methoxy]methyl}-1,2-benzisothiazol-5-yl}-1-methyl-6-(trifluoromethyl)-]
6.0: SAGPY herbicidal rating [3, 16] | CYPIR herbicidal rating [4, 15] | ORYSAT herbicidal rating (rice tolerance) ([6]; 0.2500 kg/ha, rated three to four weeks after treatment)
2.0: SAGPY herbicidal rating [3, 15]
4.0: SAGPY herbicidal rating [3, 18]
9.0: ECHORC herbicidal rating [2, 15] | ECHORC herbicidal rating [2, 17] | ECHORC herbicidal rating [2, 18] | ECHORC herbicidal rating [2, 16] | CYPIR herbicidal rating [4, 17] | CYPIR herbicidal rating [4, 18] | CYPIR herbicidal rating [4, 16] | MOOVA herbicidal rating [5, 18] | MOOVA herbicidal rating [5, 16]
5.0: ORYSAT herbicidal rating (rice tolerance) ([6]; 0.0320 kg/ha, rated three to four weeks after treatment) | ORYSAT herbicidal rating (rice tolerance) ([6]; 0.0620 kg/ha, rated three to four weeks after treatment) | ORYSAT herbicidal rating (rice tolerance) ([6]; 0.1250 kg/ha, rated three to four weeks after treatment)
3.0: SAGPY herbicidal rating [3, 17]
0.0: CYPSE herbicidal rating [1, 15]
7.0: CYPSE herbicidal rating [1, 16] | MOOVA herbicidal rating [5, 15] | MOOVA herbicidal rating [5, 17]

COCC(C)OC(=O)C(C)(C)Oc1ccc(C)cc1-c1nsc2ccc(-n3c(=O)cc(C(F)(F)F)n(C)c3=O)cc12 (stereo not drawn) [Example 532, Propionic acid, 2-{{2-{5-[3,6-dihydro-3-methyl-2,6-dioxo-4-(trifluoromethyl)-1(2H)-pyrimidinyl]-1,2-benzisothiazol-3-yl}-p-tolyl}oxy}-2-methyl-, 2-methoxy-1-methylethyl ester]
2.0: herbicidal effect rating ORYSAT ([6]; Rate 0.2500 kg/ha, rated 3-4 weeks after treatment)
9.0: herbicidal effect rating, ECHORC [2, 19] | herbicidal effect rating, ECHORC [2, 20] | herbicidal effect rating, ECHORC [2, 21] | herbicidal effect rating, ECHORC [2, 22] | herbicidal effect rating, SAGPY [3, 22] | herbicidal effect rating, CYPIR [4, 19] | herbicidal effect rating, CYPIR [4, 20] | herbicidal effect rating, CYPIR [4, 21] | herbicidal effect rating, CYPIR [4, 22] | herbicidal effect rating, MOOVA [5, 19] | herbicidal effect rating, MOOVA [5, 20] | herbicidal effect rating, MOOVA [5, 21] | herbicidal effect rating, MOOVA [5, 22]
0.0: herbicidal effect rating, CYPSE [1, 19] | herbicidal effect rating, CYPSE [1, 20] | herbicidal effect rating, CYPSE [1, 21] | herbicidal effect rating, CYPSE [1, 22] | herbicidal effect rating, SAGPY [3, 19] | herbicidal effect rating, SAGPY [3, 20] | herbicidal effect rating, SAGPY [3, 21] | herbicidal effect rating ORYSAT ([6]; Rate 0.0320 kg/ha, rated 3-4 weeks after treatment) | herbicidal effect rating ORYSAT ([6]; Rate 0.0620 kg/ha, rated 3-4 weeks after treatment) | herbicidal effect rating ORYSAT ([6]; Rate 0.1250 kg/ha, rated 3-4 weeks after treatment)

CCOc1nc(C(F)(F)F)cc(=O)n1-c1ccc2snc(-c3cc(C)ccc3OCC(=O)OC)c2c1 [Example 246, Methyl {{2-{5-[2-ethoxy-6-oxo-4-(trifluoromethyl)-1(6H)-pyrimidinyl]-1,2-benzisothiazol-3-yl}-p-tolyl}oxy}acetate]
1.0: ORYSAT herbicidal effect rating ([6]; Rate 0.0625 kg/ha, rated three to four weeks after treatment)
9.0: ECHORC herbicidal effect rating [2, 25] | ECHORC herbicidal effect rating [2, 26] | MOOVA herbicidal effect rating [5, 23] | MOOVA herbicidal effect rating [5, 24] | MOOVA herbicidal effect rating [5, 25] | MOOVA herbicidal effect rating [5, 26]
6.0: ECHORC herbicidal effect rating [2, 23]
4.0: CYPIR herbicidal effect rating [4, 25] | CYPIR herbicidal effect rating [4, 26]
0.0: CYPSE herbicidal effect rating [1, 23] | CYPSE herbicidal effect rating [1, 24] | CYPSE herbicidal effect rating [1, 25] | SAGPY herbicidal effect rating [3, 23] | SAGPY herbicidal effect rating [3, 24] | CYPIR herbicidal effect rating [4, 23] | ORYSAT herbicidal effect rating ([6]; Rate 0.0313 kg/ha, rated three to four weeks after treatment)
2.0: SAGPY herbicidal effect rating [3, 25] | SAGPY herbicidal effect rating [3, 26] | CYPIR herbicidal effect rating [4, 24] | ORYSAT herbicidal effect rating [6, 13] | ORYSAT herbicidal effect rating [6, 14]
7.0: ECHORC herbicidal effect rating [2, 24]

CCCCCCCCCCCCS(=O)(=O)NC(=O)c1nsc2ccc(-n3c(=O)cc(C(F)(F)F)n(C)c3=O)cc12 [Example 358, 1,2-Benzisothiazole-3-carboxamide, 5-[3,6-dihydro-3-methyl-2,6-dioxo-4-(trifluoromethyl)-1(2H)-pyrimidinyl]-N-(dodecylsulfonyl)-]
4.0: herbicidal effect rating, ECHORC [2, 27]
5.0: herbicidal effect rating, ECHORC [2, 28] | herbicidal effect rating, ECHORC [2, 25] | herbicidal effect rating, ECHORC [2, 26] | herbicidal effect rating, SAGPY [3, 27] | herbicidal effect rating, SAGPY [3, 28]
6.0: herbicidal effect rating, SAGPY [3, 25] | herbicidal effect rating, SAGPY [3, 26]
7.0: herbicidal effect rating, CYPIR [4, 26]
2.0: herbicidal effect rating ORYSAT [6, 11]
0.0: herbicidal effect rating, CYPSE [1, 27] | herbicidal effect rating, CYPSE [1, 28] | herbicidal effect rating, CYPSE [1, 25] | herbicidal effect rating, CYPSE [1, 26] | herbicidal effect rating, CYPIR [4, 27] | herbicidal effect rating, CYPIR [4, 28] | herbicidal effect rating, CYPIR [4, 25]
9.0: herbicidal effect rating, MOOVA [5, 27] | herbicidal effect rating, MOOVA [5, 28] | herbicidal effect rating, MOOVA [5, 25] | herbicidal effect rating, MOOVA [5, 26]
3.0: herbicidal effect rating ORYSAT [6, 12] | herbicidal effect rating ORYSAT [6, 13] | herbicidal effect rating ORYSAT [6, 14]
